Marks after values point to notes of the source that are not given here.
Tests used:
Assay type in all cases: in vivo, rat
ARI caused by cisplatin = assay: Cisplatin-induced ARI model
Procedure: Sprague-Dawley rats (350-400 g) were given a single dose of cisplatin (7 mg/kg) intraperitoneally on Day 1. One group of rats (n=8) received one dose of SS-31 (3 mg/kg) subcutaneously just prior to cisplatin administration, and repeated once daily for 3 more days. A second group of rats (n=8) […] received an equal volume of saline on the day of cisplatin administration and for 3 more days after.
Experimental Protocol: Rats had free access to tap water and standard rat chow prior to cisplatin administration. Control blood samples were obtained from the tail vein before cisplatin administration. Saline or SS-31 (dissolved in saline) was administered to the rats subcutaneously prior to cisplatin injection. Cisplatin (dissolved in saline) was administered at a dose of 7 mg/kg intraperitoneally. All rats then received either saline or SS-31 (3 mg/kg) daily for 3 days. Rat were placed in metabolic cages for the last 24 hours for urine collection. At the end of this period, a blood sample was withdrawn from the tail vein. After this, the animals were anesthetized, kidneys were removed, and the animals euthanized.
Renal function: Renal function was assessed by blood urea nitrogen (BUN), serum creatinine, urine creatinine, and urine protein (Beckman ALX Chemical Analyzer). GFR was estimated from creatinine clearance which was determined from urinary creatinine, urine flow rate, and serum creatinine.
Renal Histology: Kidneys were fixed in 10% neutral-buffered formalin and embedded in paraffin wax. Three micron sections were stained with periodic acid-Schiff (PAS) and analyzed by light microscopy.

[1] = tested on: CIN in glycerol-induced rhabdomyolysis animal model; assay: CIN in glycerol-induced rhabdomyolysis model, Experiment 3
Procedure: (§1) SD rats with body weight of 300-400 grams were dehydrated for 24 h followed by i.m. injection with 25% glycerol solution (v/v) at the dose of 10 ml/kg. Twenty-four hours (24 h) later, the rats were grouped and subjected to contrast induced nephropathy study protocol. Eighteen SD rats with body weight of 350-400 g were randomized into three groups with the doses, dosing schedules and study protocol presented in FIG. 27. The effects of SS-31 on ARI can be examined by comparing the renal functions in animals from group A with that from group B.
Renal function: Renal function was assessed by determining serum and urinary creatinine using Jiancheng Cr kit (Nanjing, P.R.C) at baseline, 24 h after dehydration and 48 h post the contrast dye administration. The creatinine clearance was calculated based on the Scr, Ucr and Urinary volume. Urinary protein concentration was determined by Bradford Protein Assay kit (Sigma, U.S.A.). Samples were analyzed by students t-test and differences were considered significant at p<0.05.

renal mitochondria = assay: I/R model: respiration of isolated renal mitochondria; conditions: after 45 min ischemia, pretreatment
Procedure: Results. The effects of the aromatic-cationic peptides of the invention on a model of ARI caused by ischemia-reperfusion were investigated. Renal mitochondria were isolated in accordance with the procedures described above and oxygen consumption was measured.
State 3 respiration was initiated with the addition of ADP.

[2] = tested on: ARI caused by ischemia-reperfusion (I/R); assay: I/R model of ARI: BUN and serum creatinine; conditions: 45 min ischemia and 24 h reperfusion; 3 mg/kg 30 min before ischemia and before reperfusion
Procedure: Sprague Dawley rats (250˜300 g) were assigned to four groups: (1) sham surgery group without I/R; (2) I/R+saline vehicle treatment; (3) I/R+SS-20 treatment; (4) I/R+SS-31 treatment. Each experimental group consisted of 8 rats. SS-20 and SS-31 (3 mg/kg, dissolved in saline) were administered to rats 30 min before ischemia and immediately before onset of reperfusion. The control rats were given saline alone on the same schedule.
Rats were anesthetized with a mixture of ketamine (90 mg/kg, i.p.) and xylazine (4 mg/kg, i.p.). The left renal vascular pedicle was occluded temporarily using a micro-clamp for 30 or 45 min. At the end of the ischemic period, reperfusion was established by removing of the clamp. At that time, the contralateral right kidney was removed. After 24 h reperfusion, animals were sacrificed and blood samples were obtained by cardiac puncture. Renal function was determined by blood urea nitrogen (BUN) and serum creatinine (BioAssay Systems DIUR-500 and DICT-500).
BUN and serum creatinine were assayed using kits from BioAssay Systems (DIUR-500 and DICT-500). […] The # indicates p<0.05 from the IR=saline group.

[3] = tested on: CIN in glycerol-induced rhabdomyolysis animal model; assay: CIN in glycerol-induced rhabdomyolysis model, Experiment 2
Procedure: as §1, with “hours” for “hours (24 h)”, “Sixteen” for “Eighteen”, “300-350” for “350-400”, “23.” for “27.”, “B. Samples were analyzed by Student's t-test and differences were considered significant at p<0.05.” for “B.”
Renal function: Renal function was assessed by determining serum and urinary creatinine using Jiancheng Cr kit (Nanjing, P.R.C) at baseline, 24 h after dehydration and 48 h post the contrast dye administration. The creatinine clearance was calculated based on the Scr, Ucr and urinary volume. Urinary protein concentration was determined by Bradford Protein Assay kit (Sigma, St. Louis, Mo.).

[4] = 3 days after cisplatin, 3 mg/kg s.c. daily

In the case of D-Arg-2′6′Dmt-Lys-Phe-NH2 [SS-31], the “rats with no change in serum creatinine (<0.4 mg/dl)” value (ARI caused by cisplatin; 3 days after cisplatin) is reported as 5 out of 8, the BUN (ARI caused by cisplatin; [4]) is reported as 29.3 ± 25 mg/dL and the Kidney weight (ARI caused by cisplatin; [4]) is reported as 1.6 ± 0.2 g. It also gave a body weight (ARI caused by cisplatin; [4]) of 384 ± 28 g, a serum creatinine (ARI caused by cisplatin; [4]) of 0.8 ± 0.73 mg/dL and a BUN (ARI caused by cisplatin; before cisplatin treatment) of 15.5 ± 1.7 mg/dL. For the same substance, the body weight (ARI caused by cisplatin; before cisplatin treatment) was 376.9 ± 5.2 g, the serum creatinine (ARI caused by cisplatin; before cisplatin treatment) was 0.4 ± 0.09 mg/dL and the “PAS staining of kidney” value ([1]; glycerin, dye) was “intact brush borders, normal glomeruli and minimum protein cast in the tubular cells”. For the same substance, the “urine protein level over time” value ([1]; vs vehicle group) was “recovered faster than the vehicle group”, the “renal mitochondrial oxygen consumption (state 3 respiration)” value (renal mitochondria) was “significantly improved oxygen consumption” and the BUN [2] was 113.8 ± 11.4# mg/dl. For the same substance, the “serum creatinine” value [2] was 1.05 ± 0.16# mg/dl, the “reduction of creatinine clearance” value ([3]; 48 h post dye) was 13% and the “24 h urinary protein level” value ([3]; T0 (24 h post glycerin), no peptide yet) was 50.2 ± 8.6 mg. The “24 h urinary protein level” value ([3]; T1 (48 h post glycerin and 24 hrs post dye)) was 39.5 ± 3.5 mg, the “24 h urinary protein level” value ([3]; Tb (baseline), no peptide yet) was 15.5 ± 1.5 mg and the “PAS staining of kidney” value ([3]; glycerin, dye) was “intact brush borders, normal glomeruli and minimum protein cast in the tubular cells”.

— patent publication US11628198B2, “Methods for prevention and treatment of acute renal injury” (Cornell University, priority 2008, dated 2023)
